Measured values: US9018381B2, “Chemical compounds” (AstraZeneca AB, priority 2010, dated 2015)

Tests used:
[1] = molecular target: Bcl-XL (Homo sapiens (Human), UniProt Q07817); assay: Bcl-XL FP assay (fluorescence polarization competitive binding); conditions: C-terminal 6×HIS tagged Bcl-XL (aa 1-209), FITC-Bim BH-3 peptide tracer
Description: (§1) Bcl-xL and Bcl-2 FP binding affinity of compound(s) of Formulae (I), (I-a), (I-b), (I-c), (I-d) and/or (I-e) may be determined using a variety of known methods. One such assay is a sensitive and quantitative in vitro binding assay using fluorescence polarization (“FP”) described by Wang, J.-L.; Zhang, Z-J.; Choksi, S.; Sjam. S.; Lu, Z.; Croce, C. M.; Alnemri, E. S.; Komgold, R.; Huang, Z. Cell permeable Bcl-2 binding peptides: a chemical approach to apoptosis induction in tumor cells. Cancer Res. 2000, 60, 1498-1502).
(§2) Additionally, the binding affinity of compound(s) of Formulae (I), (I-a), (I-b), (I-c), (I-d) and/or (I-e) to Bcl-2 protein in vitro was determined by a competitive binding assay based on fluorescence polarization. For example, fluorescence polarization (“FP”) assays may be developed using a c-terminal 6×HIS tagged Bcl-2 (aa 1-204) and a C-terminal 6×HIS tagged Bcl-XL (aa 1-209). […] Dilutions of either Bcl-2 (1.3 nM) or Bcl-XL (0.8 nM) may be added to serial dilutions of antagonist and incubated for one hour prior to the addition of 2 nM of fluorescent peptide tracer (Anaspec, Fremont, Calif.) in the assay buffer. Final assay buffer conditions may be 20 mM HEPES, pH 7.5, 1 mM DTT, 0.005% Tween-20 and 50 mM NaCl. Samples may be read after 20-minute incubation. Fluorescence polarization values may be plotted as a function of the antagonist concentration.

[2] = molecular target: Bcl-2 (Homo sapiens (Human), UniProt P10415); assay: Bcl-2 FP assay (fluorescence polarization competitive binding); conditions: c-terminal 6×HIS tagged Bcl-2 (aa 1-204), FITC-Bim BH-3 peptide tracer
Chain of Bcl-2 (P10415 1-204): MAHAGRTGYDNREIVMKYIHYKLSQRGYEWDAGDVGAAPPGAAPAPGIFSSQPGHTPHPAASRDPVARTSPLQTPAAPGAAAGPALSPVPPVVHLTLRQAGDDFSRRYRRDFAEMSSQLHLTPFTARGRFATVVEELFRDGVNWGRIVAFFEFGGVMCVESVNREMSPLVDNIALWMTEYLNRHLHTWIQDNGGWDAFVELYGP
Description: as §1, §2

Chain of Bcl-XL (Q07817 1-209): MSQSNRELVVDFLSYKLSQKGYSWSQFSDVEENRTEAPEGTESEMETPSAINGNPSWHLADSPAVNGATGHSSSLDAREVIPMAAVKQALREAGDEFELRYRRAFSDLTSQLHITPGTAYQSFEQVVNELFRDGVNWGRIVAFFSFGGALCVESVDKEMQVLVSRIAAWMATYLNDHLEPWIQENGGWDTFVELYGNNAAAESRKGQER

For O=C(NS(=O)(=O)c1ccc(N[C@H](CCN2CCN(C[C@H](O)CF)CC2)CSc2ccccc2)c(S(=O)(=O)C(F)(F)F)c1)c1ccc(N2CCC([C@@H](O)c3ccccc3-c3ccc(Cl)cc3)CC2)cc1 (single isomer, unassigned) [Example 6], the IC50 [1] was 2 nM and the IC50 [2] was 1 nM.
